Test system: siRNA
Test: Fluorescence spectroscopy of peptide-siRNA interaction
Assay type: binding
Protocol: The peptide C6M1 was used in this experiment to study the interaction between peptide and siRNA using fluorescence spectroscopy method. C6M1 has four tryptophan amino acids which can be used as fluorescence probe. […] A blue shift from 355 to 330 nm was also observed in molar ratios of less than 40:1, clearly at 20:1 and 10:1, probably due to the change in the environment of tryptophan by adding more hydrophilic siRNA molecules.
A similar experiment was also performed by tracking the fluorescence property of labeled siRNA, interacting with C6M1. […] The red shift could also be an indicator of a change in the siRNA environment and/or conformational change in siRNA structure upon interacting with peptides.

RLWRLLWRLWRRLWRLLR (C6M1) was tested, and the “tryptophan fluorescence intensity of C6M1 on adding siRNA” value (fixed C6M1 concentration, more siRNA added) was “intensity of fluorescence decreased”, the “fluorescence spectra of labeled siRNA” value (low molar ratios of 2:1 and 4:1) was “no significant change” and the “fluorescence intensity of labeled siRNA” value (molar ratios of 10:1 and 20:1) was “intensity decreased”. The “blue shift of fluorescence” value (molar ratios of less than 40:1, clearly at 20:1 and 10:1) was 355 to 330 nm.
